Values of other authors as cited in US10202620B2, “Synthesis of olefinic alcohols via enzymatic terminal hydroxylation” (PROVIVI, INC., priority 2014, dated 2019).

What was measured:
CYP52A4 = biological target: T1, CYP52A4 (Candida maltosa, UniProt P16141); conditions: terminal hydroxylation, by alkane/FA chain length
T1 sequence (P16141 1-538): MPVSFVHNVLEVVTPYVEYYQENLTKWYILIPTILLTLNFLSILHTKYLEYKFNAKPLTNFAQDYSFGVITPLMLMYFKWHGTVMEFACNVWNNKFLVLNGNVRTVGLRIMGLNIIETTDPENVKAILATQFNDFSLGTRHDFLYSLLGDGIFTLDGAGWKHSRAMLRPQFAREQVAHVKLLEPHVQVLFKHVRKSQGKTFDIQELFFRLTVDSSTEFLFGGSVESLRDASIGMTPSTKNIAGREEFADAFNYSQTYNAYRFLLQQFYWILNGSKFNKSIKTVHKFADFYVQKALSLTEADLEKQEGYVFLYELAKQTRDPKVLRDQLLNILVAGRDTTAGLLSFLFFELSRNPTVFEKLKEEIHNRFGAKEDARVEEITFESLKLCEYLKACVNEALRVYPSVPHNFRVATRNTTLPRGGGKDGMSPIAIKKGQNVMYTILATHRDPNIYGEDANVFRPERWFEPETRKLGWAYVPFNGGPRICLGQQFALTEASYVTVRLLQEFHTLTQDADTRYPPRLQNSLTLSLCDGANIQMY

CYP52A3 = conditions: terminal hydroxylation, by alkane/FA chain length
AlkB P. putida GPo1 = biological target: T2, AlkB P. putida GPo1 (Ectopseudomonas oleovorans, UniProt P12691); conditions: terminal hydroxylation, by alkane/FA chain length
T2 sequence (P12691 1-401): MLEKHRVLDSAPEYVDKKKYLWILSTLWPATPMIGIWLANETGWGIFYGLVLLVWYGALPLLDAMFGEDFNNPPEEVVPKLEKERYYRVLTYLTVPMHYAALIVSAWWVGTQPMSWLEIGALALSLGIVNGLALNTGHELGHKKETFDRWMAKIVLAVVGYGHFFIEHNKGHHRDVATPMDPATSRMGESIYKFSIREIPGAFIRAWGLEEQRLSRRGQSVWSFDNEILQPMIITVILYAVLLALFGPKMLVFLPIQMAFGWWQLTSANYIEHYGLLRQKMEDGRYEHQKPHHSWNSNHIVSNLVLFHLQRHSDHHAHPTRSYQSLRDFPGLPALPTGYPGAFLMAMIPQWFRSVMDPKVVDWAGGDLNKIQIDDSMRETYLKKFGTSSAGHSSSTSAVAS

alkB2 Gordonia sp TF6 = conditions: terminal hydroxylation, by alkane/FA chain length; 100% relative activity obtained with hexane
CYP153A16 = conditions: terminal hydroxylation, by alkane/FA chain length
CYP153A P. sp. = conditions: terminal hydroxylation, by alkane/FA chain length
LadA = biological target: T3, LadA (Geobacillus thermodenitrificans, UniProt A4IU28); conditions: terminal hydroxylation, by alkane/FA chain length
T3 sequence (A4IU28 1-440): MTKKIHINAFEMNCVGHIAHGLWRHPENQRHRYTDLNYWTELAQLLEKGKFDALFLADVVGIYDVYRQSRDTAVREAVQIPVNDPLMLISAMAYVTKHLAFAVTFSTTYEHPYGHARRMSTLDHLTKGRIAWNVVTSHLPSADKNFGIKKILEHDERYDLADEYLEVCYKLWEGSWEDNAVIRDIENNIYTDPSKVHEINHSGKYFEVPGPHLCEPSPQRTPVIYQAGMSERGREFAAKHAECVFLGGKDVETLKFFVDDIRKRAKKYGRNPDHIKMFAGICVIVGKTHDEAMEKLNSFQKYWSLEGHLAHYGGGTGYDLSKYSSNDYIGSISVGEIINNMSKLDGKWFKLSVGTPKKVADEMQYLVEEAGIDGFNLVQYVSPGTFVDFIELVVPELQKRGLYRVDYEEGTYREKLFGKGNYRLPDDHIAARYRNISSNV

SMILES | Relative activity CYP52A4 (Scheller et al., 1996, Arch. Biochem Biophys. 328: 245-254) (CYP52A4) | Relative activity CYP52A3 (Scheller et al., 1996, Arch. Biochem Biophys. 328: 245-254) (CYP52A3) | Relative activity AlkB P. putida GPo1 (Vanbeilen et al., 1994, Enzyme Microb. Technol. 16: 904-911) (AlkB P. putida GPo1) | Relative activity CYP153A6 (Funhoff et al., 2006, J. Bacteriol. 188: 5220-5227) (CYP153A6) | Relative activity alkB2 Gordonia sp TF6* (Fujii et al., 2004, Biosci. Biotechnol. Biochem. 68: 2171-2177) (alkB2 Gordonia sp TF6) [%] | Relative activity CYP153A16 (Scheps et al., 2011, Org. Biomol. Chem. 9: 6727-6733) (CYP153A16) | Relative activity CYP153A P. sp. (Scheps et al., 2011, Org. Biomol. Chem. 9: 6727-6733) (CYP153A P. sp.) | Relative activity LadA (Feng et al., 2007, Proc. Natl. Acad. Sci. U.S.A. 104: 5602-5607) (LadA) | also measured
CCCCCCCCCCCCCCCC(=O)O [C16 FA] | 18 | 35 |  |  |  |  |  |  | Relative activity CYP52A21 (Kim et al., 2007, Arch. Biochem. Biophys. 464: 213-220) (CYP52A21): 29
CCCCCCCCCCCCCCCCCC(=O)O [C18 FA] | 1 | 30 |  |  |  |  |  |  | 
CCCCCCCC [Strain C8] |  |  | 95 | 100 | 72 | 100 | 100 |  | 
CCCCCCCCC [Strain C9] |  |  | 100 | 82 | 63 | 29 | 69 |  | 
CCCCCCCCCC [Strain C10] |  |  | 60 | 23 | 66 | 13 | 60 |  | 
CCCCCCCCCCC [Strain C11] |  |  | 6 | 1 | 48 | <8 | <6 |  | 
CCCCCCCCCCCC [Strain C12] | 37 | 41 |  |  | 34 |  |  |  | 
CCCCCCCCCCCCCCC [Strain C15] |  |  |  |  |  |  |  | 83 | 
CCCCCCCCCCCCCCCC [Strain C16] | 33 | 100 |  |  |  |  |  | 100 | 
CCCCCCCCCCCCCCCCCC [Strain C18] | 20 | 48 |  |  |  |  |  | 78 | 
CCCCCCCCCCCCCCCCCCCCCC [Strain C22] |  |  |  |  |  |  |  | 74 | 
CCCCCCCCCCCCCCCCCCCCCCCC [Strain C24] |  |  |  |  |  |  |  | 65 | 
